Measurements: patent US20260297081A1, “COMPOUNDS AND METHODS OF TREATING CANCERS” (Cullgen Inc., priority 2023, published 2026)

Assays:
Assay type in all cases: cell-based
CDK4 = CDK4 (Homo sapiens, UniProt P11802+Q16531); assay: Immunoblotting of CDK4 protein level in Calu-1 and MCF7 cells (FIG. 1A-1B); set-up: Cells that express cyclin D1-3 and CDK4/6 proteins were treated with heterobifunctional compounds; endogenous in cells; host or cells: Calu-1; settings: Calu-1 cells, 4 hours
Description: (§1) Calu-1 cells were treated with heterobifunctional compound CPD-10, or CDK4/6 inhibitor palbociclib at indicated concentrations for 4 hours (FIG. 1A). MCF7 cells were deprived of serum for 2 hours followed by treatment with CPD-10, or palbociclib at indicated concentrations for 24 hours (FIG. 1B).
(§2) Antibody and Reagent Anti-cyclin D1 (29785), anti-cyclin D2 (3741S), anti-cyclin D3 (2936S), anti-CDK4 (127905), anti-CDK6 (3136S), anti-phospho-Rb (8516S), anti-FoxM1 (54365), anti-cyclinA2(4656S), anti-vinculin antibody (187995) antibodies were purchased from Cell Signaling Technology. HRP-conjugated anti-α-tubulin antibody and anti-α-GAPDH antibody were purchased from GNI. Media, and other cell culture reagents were purchased from Thermo Fisher Scientific. CellTiter-Glo Luminescent Assay kit was purchased from Promega.
(§3) Calu-1, T47D, MCF7, HCC1428 and other cells were cultured at 37° C. with 5% CO2 in RPMI 1640 or DMEM medium supplemented with 10% fetal bovine serum. Cells were authenticated using the short tandem repeat (STR) assays. Mycoplasma test results were negative. For palbo-resistant cell model, T47D cells were cultured long-term to resistance in the presence of 1 μM Palbociclib. Cells were deemed resistant when growing in the presence of Palbo at the same rate as parental cells.
(§4) Cultured cells were washed with cold PBS once and lysed in cold RIPA buffer supplemented with protease inhibitors and phosphatase inhibitors (Beyotime Biotechnology). The solutions were then incubated at 4 ? for 30 min with gentle agitation to fully lysed cells. Cell lysates were centrifuged at 13,000 rpm for 10 min at 4 ? and pellets were discarded. Total protein concentrations in the lysates were determined following BCA assays (Beyotime Biotechnology). Cell lysates were mixed with Laemmli loading buffer and heated at 99° C. for 5 min. Proteins were resolved on SDS-PAGE and visualized using Western ECL Substrate kits on a ChemiDoc MP Imaging system (Bio-Rad). Protein bands were quantitated using the Image Lab software provided by Bio-Rad.

CCND1 = assay: Immunoblotting of CCND1 protein level in Calu-1 and MCF7 cells (FIG. 1A-1B)
Description: as §1, §2, §3, §4

[1] = tested on: T47D palbo-resistant cells; assay: CellTiter-Lumi cell viability assay, T47D palbo-resistant cells, 6 days (FIG. 4); settings: Homo sapiens, 144 h
Description: Furthermore, we developed one ER^+ breast cancer T47D model with acquired resistance after long period of treatment with 1 μM palbociclib (over IC90). Cells were deemed resistant when growing in the presence of palbo at the same rate as parental cells. Palbo resistance was determined by CellTiter-Lumi cell viability assay (FIG. 4, IC50>10,000 nM).

HCC1428 cells [2] = assay: Annexin V apoptosis flow cytometry, HCC1428 (FIG. 3B); settings: HCC1428, dose approximating IC90, 6 days
Description: (§5) T47D cells were treated with DMSO, palbociclib, heterobifunctional compound CPD-10 for 6 days at doses approximating IC50 and IC90 concentrations as indicated (FIG. 3A). HCC1428 cells were treated with DMSO, palbociclib, heterobifunctional compound CPD-10, or its negative control compound CPD-143 for 6 days at doses approximating IC90 concentrations as indicated (FIG. 3B). Cells were harvested by trypsinization, staining was carried out using the Annexin V Apoptosis Detection Kit.
(§6) Assays were performed on the CytoFLEX Cytometer (Beckman Coulter), and data were analyzed using CytExpert software. For cell death and apoptosis analysis, cells were harvested by trypsinization, staining was carried out using the Annexin V Apoptosis Detection Kit (BD Biosciences). Briefly, cells were resuspended in 1× binding buffer and incubated with fluorochrome-conjugated Annexin V and 7-AAD for 15 min in darkness at room temperature.

T47D cells [3] = assay: Annexin V apoptosis flow cytometry, T47D (FIG. 3A); settings: doses approximating IC50 and IC90, 6 days
Description: as §5, §6

[4] = tested on: CCND1, CCND3, and CDK4 in Calu-1 cells; assay: Immunoblot of CCND1, CCND3 and CDK4 protein levels in Calu-1 cells (FIG. 1A, 4 hours); settings: Calu-1 cells, CDK4/6 inhibitor
Description: (§7) Specific exemplary heterobifunctional compounds were characterized in Calu-1, MCF7, T47D and other cells. Cells that express cyclin D1-3 and CDK4/6 proteins were treated with heterobifunctional compounds disclosed herein at indicated concentrations. MCF7 cells were deprived of serum for 2 hours followed by the treatment with heterobifunctional compounds. Cells were collected, lysed and subject to immunoblotting using an antibody specific to CCND1, CCND2, CCND3, CDK4, or FoxM1, cyclin A2, or phosphorylated Rb (S807/811) proteins. Tubulin or GAPDH was used as the loading control. DMSO treatment was used as the negative control.

CCND3 = assay: Immunoblotting of CCND3 protein level in Calu-1 and MCF7 cells (FIG. 1A-1B); settings: Calu-1 cells, 4 hours
Description: as §1, §2, §3, §4

[5] = tested on: CCND1, CCND3, and CDK4 in MCF7 cells; assay: Immunoblot of CCND1, CCND3 and CDK4 protein levels in MCF7 cells under serum starvation (FIG. 1B, 24 hours); settings: MCF7 cells, CDK4/6 inhibitor
Description: as §7

T47D cells [6] = assay: Flow cytometric analysis of Annexin V/7-AAD stained T47D cells (apoptosis), 6 days (FIG. 3A)
Description: as §5, with “IC50and” for “IC50 and”, “Kit. The percentages of early apoptotic (Annexin V^+7-AAD^−, lower right quadrant), late apoptotic (Annexin V^+7-AAD^+, upper right quadrant) and necrotic cells (Annexin V^−7-AAD^+, upper left quadrant) are indicated on dot plots.” for “Kit.”

HCC1428 cells [7] = assay: Flow cytometric analysis of Annexin V/7-AAD stained HCC1428 cells (apoptosis), 6 days (FIG. 3B); settings: HCC1428; 1 μM; 6 days
Description: as §5, with “IC50and” for “IC50 and”, “Kit. The percentages of early apoptotic (Annexin V^+7-AAD^−, lower right quadrant), late apoptotic (Annexin V^+7-AAD^+, upper right quadrant) and necrotic cells (Annexin V^−7-AAD^+, upper left quadrant) are indicated on dot plots.” for “Kit.”

Chain of CDK4 (P11802 2-303 limits assumed): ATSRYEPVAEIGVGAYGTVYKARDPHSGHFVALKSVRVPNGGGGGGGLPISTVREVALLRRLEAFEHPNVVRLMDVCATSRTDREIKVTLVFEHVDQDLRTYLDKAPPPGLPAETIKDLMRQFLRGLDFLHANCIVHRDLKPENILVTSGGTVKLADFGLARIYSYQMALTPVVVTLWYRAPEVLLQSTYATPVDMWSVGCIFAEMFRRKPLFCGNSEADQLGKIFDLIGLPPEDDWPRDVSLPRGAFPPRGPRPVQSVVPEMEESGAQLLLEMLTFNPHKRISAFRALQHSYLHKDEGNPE
Chain of CDK4 (P24385 whole entry partner): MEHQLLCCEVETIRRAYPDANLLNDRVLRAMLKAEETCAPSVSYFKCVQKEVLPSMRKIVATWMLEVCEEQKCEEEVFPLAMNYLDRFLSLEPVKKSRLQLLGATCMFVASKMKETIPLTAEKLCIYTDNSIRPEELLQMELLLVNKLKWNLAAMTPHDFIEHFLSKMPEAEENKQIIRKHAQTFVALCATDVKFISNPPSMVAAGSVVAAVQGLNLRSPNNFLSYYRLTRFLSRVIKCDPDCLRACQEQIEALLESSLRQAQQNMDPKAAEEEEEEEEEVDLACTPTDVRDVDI
Chain of CDK4 (Q16531 2-1140 limits assumed): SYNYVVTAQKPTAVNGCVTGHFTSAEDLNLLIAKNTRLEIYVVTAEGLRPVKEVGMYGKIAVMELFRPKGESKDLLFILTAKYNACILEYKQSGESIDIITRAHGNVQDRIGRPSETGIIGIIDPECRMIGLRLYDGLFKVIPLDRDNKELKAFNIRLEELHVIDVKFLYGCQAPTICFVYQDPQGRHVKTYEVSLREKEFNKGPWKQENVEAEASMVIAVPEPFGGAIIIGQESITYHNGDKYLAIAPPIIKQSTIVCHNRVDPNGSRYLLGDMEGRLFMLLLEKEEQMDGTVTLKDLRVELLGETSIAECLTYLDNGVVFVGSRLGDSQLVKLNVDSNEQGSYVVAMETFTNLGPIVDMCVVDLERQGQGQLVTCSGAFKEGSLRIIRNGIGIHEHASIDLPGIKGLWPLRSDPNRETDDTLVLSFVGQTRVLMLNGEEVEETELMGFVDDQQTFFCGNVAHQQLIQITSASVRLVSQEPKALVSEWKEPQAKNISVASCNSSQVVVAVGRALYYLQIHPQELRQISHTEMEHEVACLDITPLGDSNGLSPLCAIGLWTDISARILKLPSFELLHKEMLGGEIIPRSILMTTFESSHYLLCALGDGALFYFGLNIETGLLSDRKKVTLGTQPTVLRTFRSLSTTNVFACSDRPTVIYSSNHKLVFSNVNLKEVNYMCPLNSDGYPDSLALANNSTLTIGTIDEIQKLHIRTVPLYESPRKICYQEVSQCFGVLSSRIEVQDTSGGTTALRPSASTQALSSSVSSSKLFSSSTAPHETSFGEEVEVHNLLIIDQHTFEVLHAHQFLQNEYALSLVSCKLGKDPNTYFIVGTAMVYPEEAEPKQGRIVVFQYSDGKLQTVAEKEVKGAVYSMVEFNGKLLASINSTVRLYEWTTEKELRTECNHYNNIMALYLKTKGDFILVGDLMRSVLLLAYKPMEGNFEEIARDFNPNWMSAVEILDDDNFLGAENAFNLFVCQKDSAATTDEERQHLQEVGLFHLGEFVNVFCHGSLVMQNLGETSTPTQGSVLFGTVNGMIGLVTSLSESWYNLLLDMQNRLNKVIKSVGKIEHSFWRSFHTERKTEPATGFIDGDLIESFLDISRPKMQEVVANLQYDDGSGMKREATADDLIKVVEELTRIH

**Q.** Which results are given for `CC(=O)c1c(C)c2cnc(Nc3ccc(N4CCNCC4)cn3)nc2n(C2CCCC2)c1=O` [Palbociclib, palbociclib, reference compound]?
**A.** CDK4 protein level (CDK4): did not significantly change the levels of these proteins in Calu-1 cells; CCND1 protein level (CCND1; Calu-1 cells, 4 hours): did not significantly change the levels of these proteins in Calu-1 cells; CCND1 protein level (CCND1; MCF7 cells, serum deprived 2 hours, treated 24 hours): accumulated CCND1 protein levels in MCF7 cells; IC50 [1]: > 10 µM; cell apoptosis (HCC1428 cells [2]): much less effect on cell apoptosis; cell apoptosis (T47D cells [3]): much less effect on cell apoptosis; effect on CCND and CDK4 protein levels (result in words) [4]: no significant effect; CCND3 protein level (CCND3): did not significantly change the levels of these proteins in Calu-1 cells; effect on CCND1 protein levels (result in words) [5]: accumulation of CCND1 protein levels; Annexin V+ population (T47D cells [6]; 100 nM): 15.9%; Annexin V+ population (T47D cells [6]; 1 μM): 26.1%; Annexin V+ population (HCC1428 cells [7]): 17.7%
